Data set [1] concerns mice. The experiment in a line: Maximal electroshock (MES) model in mice, i.p.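 On all read-outs here: Electroshock-induced convulsion model serving to demonstrate antiepileptic efficacy against generalized and partial seizures.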 The class given is in vivo. The following applies: for ED50: Mus musculus, ip; for activity in the MES model in mice: statement in words. (In general: The maximal electroshock test induces tonic seizures with an electrical stimulus.)
The nature of data set [2]: Neurotoxicity in rats (positional sense test and gait stance test), p.o. The following applies: rat, in vivo, po. The protocol: (§1) Neurotoxicity of the claimed agents was also assessed in mice (i.p. administration) by the rotorod ataxia test and/or in rats (p.o. administration) by positional sense test and gait stance test. […] The term quantitating the neurotoxicity is the medial neurological toxic dose (TD50), was determined in the above tests.

A short description of data set [3]: Neurotoxicity in mice (rotorod ataxia test), i.p. The following applies: mouse, in vivo, ip. The protocol:
as §1

Data set [4] deals with rats. Description: Maximal electroshock (MES) model in rats, p.o.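 On all read-outs here: rat MES model gauging antiepileptic efficacy versus generalized and partial seizures after oral dosing.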 The format is in vivo. The following applies: rats, p.o., Table 15; for ED50: Rattus norvegicus, po, read-out: RATS MES 50.
In data set [5] the test system is male ICR albino mice. Description: Hypobaric hypoxia survival time in mice. The class given is in vivo. The protocol:
Dessicator B was disconnected and allowed to equilibrate with room air whilst dessicator A was evacuated to a pressure of 100mmHg. […] The survival time from the moment of induction of hypoxia to the time of cessation of respiration was recorded for each mouse for a maximum of 15 minutes after which time room air was reintroduced to dessicator B. Survivors were monitored for signs of lethargy or vitality.
Effect of drug treatment was assessed as the percent of the survival time of the drug treated group with respect to the saline injected or vehicle injected control group. Control groups were run twice, before and after each experimental group and consisted of 12-16 mice in groups of 4 mice. Each experimental group always consisted of 4 mice to ensure a constant residual volume of oxygen in all tests. The effect of each dose of test drug was determined in duplicate i.e. two groups of 4 mice.
All drugs were administered intra-peritoneally at the dose indicated one hour prior to exposure to hypoxia.

Data set [6] concerns mechanically dissociated neonatal rat cerebellum. The experiment in a line: Reversal of NMDA induced cell death in cultures of neonatal rat cerebellum. The class given is cell-based. The following applies: positive control, 0.01 micromoles plus NMDA. The protocol: The cerebellum was aseptically dissociated from 6 or 7-day old rat pups and placed in a 15ml sterile plastic conical tube containing 3ml of Dulbecco's modified Eagle's medium (DMEM) with a high glucose concentration ([…]) and 2mM (v/v) L-glutamine and an antibiotic antimitotic mixture. The cerebella were then dissociated after 20-25 passages through a sterile 13 gauge, 10cm long stainless steel needle attached to a 5ml syringe with an inserted 45 micrometer pore nylon sieve. The dissociated cells were centrifuged at 200g for 5 minutes. The supernatant was discarded and the cells resuspended in medium enriched with 15% (v/v) heat inactivated fetal calf serum. Cell viability was determined by the tryptan blue exclusion test.
Cells were plated at a density of 200/mm^2 on poly-L-lysine coated surfaces. Poly-L-lysine coated glass coverslips were prepared at least one hour in advance of plating by immersing sterile coverslips in sterile distilled water solution containing 15 microgram/ml poly-L-lysine, and washing in sterile water just prior to use. The plated cells were covered with enriched medium and incubated at 37°C in an atmosphere of 5% CO2 in air and 97% humidity. After three days in culture, the media was replaced with media containing the desired test compound. Each test compound was tested in duplicate. Toxic-dose response was determined for each compound.
Four groups were run in each set of experiments; • I. Control, consisting of enriched media alone, • II. N-methyl-D-aspartate (NMDA, 1mM for 3 hours) as the cytotoxic challenge, • III. Test compound plus NMDA, and • IV. Positive control, spermine(0.01 micromoles) plus NMDA.
Nerve cell survival was evaluated by phase contrast microscopy and tryptan blue staining after 24 hours.
Surviving cells in culture are measured relative to control (100%), as described above. Percent protection is the Cell Survival for the test compound minus the NMDA effect. Thus, maximal protection is 100% minus 30% NMDA effect i.e. […]. The Effective Protection was calculated as the percent of the Percent Protection (X) divided by the maximal protection value (e.g. X x 100/70).

Setting [7] is: 50 mg/kg ip one hour prior to hypoxia.
Where [8] appears, read: 100 mg/kg ip one hour prior to hypoxia.

The structures appear in SMILES notation. Structures can show the parent of a compound that is named as a salt.

As for `NC(=O)CNC1CCCc2ccccc21` (racemic) [Example 4, (rac)-N-(2-Acetamido)-1-aminotetralin], the “MICE MES ED50” value in data set [1] (i.p., Table 15) was under 100 mg/kg.
For the compound `CCCC(=O)NC1CCc2ccccc21` (racemic) [Example 11, (rac)-N-Butyryl-1-aminoindan], the TD50 in data set [2] is over 50 mg/kg; in data set [3] (MICE TD50, mice, Table 15), under 300 mg/kg. Further, the ED50 was under 300 mg/kg in data set [1] (Table 15) and under 50 mg/kg in data set [4].
In data set [2], `c1ccc(CNC2CCc3ccccc32)cc1` (racemic) [Example 16, (rac)-N-Benzyl-1-aminoindan.HCl] showed a TD50 of over 50 mg/kg. This compound also returned an ED50 in data set [1] (Table 15) of under 50 mg/kg. The “RATS MES 50” value in data set [4] is 50 mg/kg.
In the case of `CC(=O)NC1CCc2cccc(C)c21` (racemic) [Example 20, (rac)-7-Methyl-N-acetyl-1-aminoindan], the TD50 in data set [2] is over 50 mg/kg; in data set [3] (MICE TD50) it was 100 mg/kg. The values for the ED50 in data set [1] (Table 15) and in data set [4] were under 100 mg/kg and under 50 mg/kg, respectively.
In data set [1] (Table 15), `COc1ccc2c(c1)C(N)CC2` (racemic) [Example 25, (rac)-6-Methoxy-1-aminoindan.HCl] returned an ED50 of under 100 mg/kg. The same compound had a TD50 in data set [3] (MICE TD50, mice, Table 15) of over 100 mg/kg. Further, in data set [4], the “RATS MES 50” value came out at 50 mg/kg.
Consider `Cc1cccc2c1C(N)CC2` (racemic) [Example 28, (rac)-7-Methyl-1-aminoindan.HCl], for which the TD50 in data set [2] was over 50 mg/kg; in data set [3] (MICE TD50, mice, Table 15) it was under 100 mg/kg. Moreover, the ED50 in data set [1] (Table 15) is under 100 mg/kg. For the same compound, the entries for the “PROTECTION % OF RESPECTIVE CONTROL” value in data set [5] (setting [7]) and in data set [5] (setting [8]) were 361±106 % OF RESPECTIVE CONTROL and 941±34 % OF RESPECTIVE CONTROL, respectively. For the same compound, the “RATS MES 50” value in data set [4] was under 50 mg/kg.
`COc1ccc2c(c1OC)CCC2N` (racemic) [Example 31, (rac)-4,5-Dimethoxy-1-aminoindan.HCl]: the TD50 in data set [2] was over 50 mg/kg; in data set [3] (MICE TD50, mice, Table 15), under 100 mg/kg. The compound further gave an ED50 in data set [1] (Table 15) of under 100 mg/kg. Besides, the “activity in the MES model in mice” value in data set [1] is recorded as “showed activity”.
In turn, `NC1CCc2ccc(O)cc21` (racemic) [Example 34, (rac)-6-Hydroxy-1-aminoindan.HCl] had an ED50 in data set [1] (Table 15) of under 300 mg/kg. Further, in data set [1], the “activity in the MES model in mice” value is recorded as “showed activity”. The TD50 in data set [3] (MICE TD50, mice, Table 15) is over 300 mg/kg.
Regarding `Cc1ccc2c(c1)CCC2N` (racemic) [Example 38, (rae)-5-Methyl-1-aminoindan.HCl], the TD50 in data set [2] is over 50 mg/kg; in data set [3] (MICE TD50, mice, Table 15) it was under 100 mg/kg. The ED50 in data set [1] (Table 15) is under 100 mg/kg. The “RATS MES 50” value in data set [4] is recorded as 50 mg/kg.
In the case of `Cc1cc(C)c2c(c1)C(C)CC2N.Cl` (racemic) [Example 41, (rac)-3,5,7-Trimethyl-1-aminoindan.HCl], the “PROTECTION % OF RESPECTIVE CONTROL” value in data set [5] (setting [7]) was determined as 187±41 % OF RESPECTIVE CONTROL; in data set [5] (setting [8]), 644±316 % OF RESPECTIVE CONTROL.
`NC1CCc2cccc(O)c21` (racemic) [Example 42, (rac)-7-Hydroxy-1-aminoindan.HCl] came in with a TD50 in data set [2] of over 50 mg/kg. In addition, the “PROTECTION % OF RESPECTIVE CONTROL” value is 179±170 % OF RESPECTIVE CONTROL in data set [5] (setting [7]) and 228±119 % OF RESPECTIVE CONTROL in data set [5] (setting [8]). Besides, in data set [4], the “RATS MES 50” value is listed as under 50 mg/kg.
Regarding `c1ccc2c(c1)CCC2NC1CCc2ccccc21` (racemic) [Example 43, (rac)-M,N-Di-(1-indanyl)amine.HCl], the TD50 is over 50 mg/kg in data set [2] and under 100 mg/kg in data set [3] (MICE TD50, mice, Table 15). The ED50 in data set [1] (Table 15) was under 100 mg/kg. The “RATS MES 50” value in data set [4] is reported as under 50 mg/kg.
With `CN1C(=O)CN=C(c2ccccc2)c2cc(Cl)ccc21` [Diazepam, diazepam, reference compound], the “PROTECTION % OF RESPECTIVE CONTROL” value in data set [5] (5 mg/kg ip 0.5 hour prior to hypoxia) was 249±166 % OF RESPECTIVE CONTROL; in data set [5] (10 mg/kg ip 0.5 hour prior to hypoxia) it was 430±59 % OF RESPECTIVE CONTROL.
In the case of `NC1Cc2ccccc21` (stereo not drawn) [Example 27, 1-Aminobenzocyclobutene.HCl], the TD50 in data set [2] is over 50 mg/kg; in data set [3] (MICE TD50, mice, Table 15) it was over 100 mg/kg. For the same compound, the ED50 in data set [1] (Table 15) is under 100 mg/kg. In addition, the “RATS MES 50” value in data set [4] is given as under 50 mg/kg.
For `COc1ccc2c(c1OC)CC[C@@H]2N.Cl` [Example 30, (S)-4,5-Dimethoxy-1-aminoindan, HCl], the results for the “PROTECTION % OF RESPECTIVE CONTROL” value in data set [5] (setting [7]) and in data set [5] (setting [8]) were 265±284 % OF RESPECTIVE CONTROL and 379±202 % OF RESPECTIVE CONTROL, respectively.
Regarding `C[C@@H]1Cc2ccccc2[C@H]1N` [Example 39, (rac)-trans-2-Methyl-1-aminoindan.HCl], the TD50 in data set [2] is over 50 mg/kg; in data set [3] (MICE TD50, mice, Table 15) it was under 100 mg/kg. For the same compound, the ED50 in data set [1] (Table 15) was under 100 mg/kg. For the same compound, the “PROTECTION % OF RESPECTIVE CONTROL” value stood at 600±213 % OF RESPECTIVE CONTROL in data set [5] (setting [7]) and 798±249 % OF RESPECTIVE CONTROL in data set [5] (setting [8]). Further, the “RATS MES 50” value in data set [4] is under 50 mg/kg.
Consider `C[C@H]1Cc2ccccc2[C@H]1N` [Example 40, (rac)-cis-2-Methyl-1-aminoindan.HCl], for which the TD50 in data set [2] is over 50 mg/kg; in data set [3] (MICE TD50, mice, Table 15), under 100 mg/kg. Also, in data set [1] (Table 15), the ED50 was under 100 mg/kg. The “PROTECTION % OF RESPECTIVE CONTROL” value in data set [5] (setting [7]) was determined as 374±190 % OF RESPECTIVE CONTROL; in data set [5] (setting [8]), 569±173 % OF RESPECTIVE CONTROL. In addition, the “RATS MES 50” value in data set [4] is under 50 mg/kg.
As to `C#CCN[C@@H]1CCc2ccccc21.CS(=O)(=O)O` [F, (R)-N-propargyl-1-aminoindan mesylate salt], in data set [1] (Table 15), the ED50 was under 300 mg/kg.
`N[C@H]1CCc2ccc(F)cc21` [K, (S)-6-fluoro-1-aminoindan] had an ED50 in data set [1] (Table 15) of 115 mg/kg. In data set [1], the “activity in the MES model in mice” value was “showed activity”. Further, the TD50 in data set [3] (MICE TD50, mice, Table 15) was under 250 mg/kg; in data set [3] (MICE TD50, mice, Table 16), under 250 mg/kg.
In the case of `CCCC(C)C1(CC)C(=O)NC(=O)NC1=O` (stereo not drawn) [Pentobarbitone, sodium pentobarbital, reference compound], the “PROTECTION % OF RESPECTIVE CONTROL” value worked out at 325±166 % OF RESPECTIVE CONTROL in data set [5] (20 mg/kg ip 0.5 hour prior to hypoxia) and 446±10.5 % OF RESPECTIVE CONTROL in data set [5] (40 mg/kg ip 0.5 hour prior to hypoxia).
Take `NCCCNCCCCNCCCN` [Spermine, spermine, reference compound]: in data set [6], the “EFFECTIVE PROTECTION” value is listed as 74% and the “PERCENT PROTECTION” value turned out to be 52%. In data set [6] (relative to control (100%)), the “SURVIVING CELL IN CULTURE” value was found to be 82%.

Values taken from patent EP0738149B1 (priority 1994, dated 1995).
